# Columns and labels:
# ERK2 = ERK2 (Homo sapiens (Human), UniProt P28482); assay: ERK2 Alphascreen; type: biochemical
# activated ERK2 = activated ERK2 (Homo sapiens (Human), UniProt P28482); assay: Activated ERK2 kinase assay, ERK2 New conditions (AlphaScreen, ERKtide phosphorylation); type: biochemical; conditions: 0.25 nM ERK2, 200 nM ERKtide peptide, 35 μM ATP, 30 min preincubation
# In short: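 Read-out is AlphaScreen with anti-phospho-EGFR (Thr669) antibody after EDTA quench and overnight dark incubation. Reaction: 0.25 nM ERK2, 30 min compound preincubation, then 200 nM ERKtide plus 35 µM ATP for 2–3 h at ambient temperature, pH 7.5. IC50 by four-parameter fit.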
# Sequence of activated ERK2 (P28482 whole entry): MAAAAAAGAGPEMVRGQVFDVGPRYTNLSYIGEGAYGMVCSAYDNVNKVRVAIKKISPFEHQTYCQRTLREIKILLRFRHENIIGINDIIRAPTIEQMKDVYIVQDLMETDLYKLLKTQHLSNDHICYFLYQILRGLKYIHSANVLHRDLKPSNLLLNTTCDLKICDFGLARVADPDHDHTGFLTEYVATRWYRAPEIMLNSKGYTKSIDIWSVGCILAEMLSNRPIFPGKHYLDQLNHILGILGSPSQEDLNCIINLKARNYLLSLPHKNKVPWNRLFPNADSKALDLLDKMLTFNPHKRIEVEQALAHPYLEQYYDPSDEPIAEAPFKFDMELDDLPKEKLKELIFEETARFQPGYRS
# Sequence of ERK2 (P28482 whole entry, species assumed): as the sequence (P28482 whole entry) above
IC50 (ERK2),IC50 (activated ERK2),SMILES
0.000574 µM,0.000752 µM,"Cc1cnccc1-c1cnc(N)c(-c2ccc(C(=O)N[C@H](CO)c3ccccc3)c(F)c2)c1 [Example 83, (S)-4-(6-amino-3′-methyl-3,4′-bipyridin-5-yl)-2-fluoro-N-(2-hydroxy-1-phenylethyl)benzamide]"
0.11 µM,0.233 µM,"C[C@@H]1CN(c2cnc(N)c(-c3ccc(C(=O)N[C@H](CO)c4ccccc4)cc3)c2)C[C@H](C)O1 [Example 97, 4-(2-amino-5-((2S,6R)-2,6-dimethylmorpholino)pyridin-3-yl)-N-((S)-2-hydroxy-1-phenylethyl)benzamide]"
0.00617 µM,0.00683 µM,"Nc1ncc(C2CCOCC2)nc1-c1ccc(C(=O)NCc2ccccc2)c(F)c1 [Example 324, 4-(3-amino-6-(tetrahydro-2H-pyran-4-yl)pyrazin-2-yl)-N-benzyl-2-fluorobenzamide]"
0.0338 µM,0.0346 µM,"Nc1ncc(C2CCOCC2)nc1-c1ccc(C(=O)NC[C@@H](O)c2ccccc2)c(F)c1 [Example 333, (S)-4-(3-amino-6-(tetrahydro-2H-pyran-4-yl)pyrazin-2-yl)-2-fluoro-N-(2-hydroxy-2-phenylethyl) benzamide]"
0.0194 µM,0.0252 µM,"Cc1cccc(CNC(=O)c2ccc(-c3nc(C4CCOCC4)cnc3N)cc2F)n1 [Example 334, 4-(3-amino-6-(tetrahydro-2H-pyran-4-yl)pyrazin-2-yl)-2-fluoro-N-((6-methylpyridin-2-yl)methyl) benzamide]"
